# Key:
# 661W = system: 661W; set-up: method as in PMID 29048427; details: data from literature ref 44, read-out: Cytotoxicity: CC50 (661W); cited from earlier work
# [1] = system: Plasmodium falciparum F32-ART (artemisinin-resistant strain); assay: Standard chemosensitivity assay (SYBR Green I), F32-ART; format: cell-based
# In short: (§1)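 Both parasite lines grown at 2% hematocrit in human red cells with 5% human serum, 37 °C, 5% CO2, then exposed to drug for 48 h in triplicate.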
# [2] = system: Plasmodium falciparum F32-TEM (artemisinin-sensitive twin line); assay: Standard chemosensitivity assay (SYBR Green I), F32-TEM; format: cell-based; details: Plasmodium falciparum; F32-TEM, 48 h incubation, SYBR Green I; mean ± SEM of 3 experiments (* mean of 2); read-out: Antiplasmodial Activity: IC50, F32-TEM
# In short: as §1
smiles,measurement,setting,value
CN1CCc2c(c3ccccc3n2Cc2ccc(C(=O)NO)cc2)C1 [Tubastatin A],CC50,661W,> 10 µM
same,IC50,"[1]; Plasmodium falciparum, F32-ART, 48 h incubation, SYBR Green I, mean ± SEM of 3 experiments (* mean of 2), read-out: Antiplasmodial Activity: IC50, F32-ART",7 µM
same,Selectivity Index CC50/IC50,[1]; ratio cytotoxicity (mammalian cell type of the CC50)/antiplasmodial activity on F32-ART,>1.4
same,IC50,[2],8 µM

# From publication PMC10610379, “Epidrugs as Promising Tools to Eliminate Plasmodium falciparum Artemisinin-Resistant and Quiescent Parasites” (Pharmaceutics, 2023)
